From patent US20050065068A1, “Methods and compositions for reducing serum phosphate levels” (priority 1999, published 2005)
Non-standard residues stand in square brackets, D forms with d. Residues, ends and D or L forms follow the SMILES beside them. No end group written: not given here. pS = N[C@@H](COP(=O)(O)O)C(=O)O

Key:
[1] = system: ovariectomized female Sprague Dawley rats; assay: Three-point bending mechanical strength test of the femur in the ovariectomized rat osteoporosis model; format: in vivo; settings: right femur, Day 84, vs. Group 5
Description: Ovariectomized rats were chosen for the efficacy study of a series of peptides. After a six (6) day quarantine/acclimation period, forty (40) ovariectomized female Sprague Dawley outbred (Crl:CD®IGS BR) rats were randomly allocated into five experimental groups of eight animals each. A sixth group was composed of eight sham-operated Sprague Dawley rats. The experimental design consisted of four test-article groups and two vehicle control groups (one ovariectomized and one sham-operated). Each rat received a single daily oral dose for 84 days of either 0.9% Sodium Chloride for Injection (controls) or 200-208 μg/kg of peptide as specified in Table 1. Doses were based upon a target dose of 50 μg/animal/day and group mean body weights determined at study initiation (Day 0). “Sham” indicates sham-operated rats; and “OVX” indicates ovariectomized rats. The dose range of 200-208 μg/kg/day employed in the study represents the target dose (50 μg/animal/day) in animals weighing […] at study initiation. The test samples for groups 1, 2, 3, and 4 were dissolved in 0.9% Sodium Chloride for injection and administered at once. All dosing was accomplished by oral gavage (dose volume 1.0-1.5 mL, adjusted weekly for bodyweight gain). Certified Rodent Diet #5002 (Purina Mills, Inc., St. Louis, Mo.) was provided during the quarantine/acclimation period and throughout the study. Clinical signs were observed once daily throughout the quarantine/acclimation and treatment periods. Individual body weights were recorded at the initiation of the dosing, once weekly throughout the treatment phase, and at necropsy. Animals were sacrificed approximately 24 hours after the administration of the final dose (Day 84). Terminal whole blood samples were collected from each animal for serum chemistry (i.e. measurement of serum calcium and phosphorus) evaluations via terminal cardiocentesis. Femurs were submitted for post-mortem bone mechanical strength and composition analysis. The right femur of each animal was reserved for bone mechanical strength evaluation (i.e. three-point bending analysis). Femurs were placed on an apparatus in which two isolated points of the long bone were supported. Weight load was applied at the center of two supporting points toward the direction in which the bone is bent. […] Femurs were positioned with the anterior side toward the center load, and the posterior side toward the two supports. The loading was done in an Instron Model #1122 materials testing machine (Canton, Mass.). Testing was conducted with a displacement of 2.0 mm/minute. Load and displacement were recorded at 0.002 mm displacement intervals. Experiments were controlled using a computer-based data acquisition system running ASYST Scientific Software (Keithley-Metrabyte; Taunton, Mass.). The following data were generated: Maximum Load (in Newton, N); Initial Stiffness (in N/mm); Energy at Maximum (in Nmm) The value of the load was plotted against the deflection generating the load-deflection curve. Two points in the initial linear portion of the load-deflection curve were chosen by the operator at the time of testing. A line was constructed through the chosen points, the slope of which is the initial stiffness. The maximum load is the largest value of the load recorded during the flexural test. The energy at maximum is the area under the load-deflection curve up to the maximum load point.

[2] = system: ovariectomized female Sprague Dawley rats; assay: Serum and urine chemistry in the ovariectomized rat osteoporosis model; format: in vivo; settings: OVX rats; for Urine Ca^2+ / Serum AP (serum alkaline phosphatase) / Serum Pi (serum inorganic phosphate) / Serum Ca^2+: 200-208 μg/kg peptide oral daily for 84 days; for Serum AP (serum alkaline phosphatase) / Serum Pi (serum inorganic phosphate) / Serum Ca^2+: terminal sample Day 84
Description: Ovariectomized rats were chosen for the efficacy study of a series of peptides. After a six (6) day quarantine/acclimation period, forty (40) ovariectomized female Sprague Dawley outbred (Crl:CD®IGS BR) rats were randomly allocated into five experimental groups of eight animals each. A sixth group was composed of eight sham-operated Sprague Dawley rats. The experimental design consisted of four test-article groups and two vehicle control groups (one ovariectomized and one sham-operated). Each rat received a single daily oral dose for 84 days of either 0.9% Sodium Chloride for Injection (controls) or 200-208 μg/kg of peptide as specified in Table 1. Doses were based upon a target dose of 50 μg/animal/day and group mean body weights determined at study initiation (Day 0). “Sham” indicates sham-operated rats; and “OVX” indicates ovariectomized rats. The dose range of 200-208 μg/kg/day employed in the study represents the target dose (50 μg/animal/day) in animals weighing […] at study initiation. The test samples for groups 1, 2, 3, and 4 were dissolved in 0.9% Sodium Chloride for injection and administered at once. All dosing was accomplished by oral gavage (dose volume 1.0-1.5 mL, adjusted weekly for bodyweight gain). Certified Rodent Diet #5002 (Purina Mills, Inc., St. Louis, Mo.) was provided during the quarantine/acclimation period and throughout the study. Clinical signs were observed once daily throughout the quarantine/acclimation and treatment periods. Individual body weights were recorded at the initiation of the dosing, once weekly throughout the treatment phase, and at necropsy. Animals were sacrificed approximately 24 hours after the administration of the final dose (Day 84). Terminal whole blood samples were collected from each animal for serum chemistry (i.e. measurement of serum calcium and phosphorus) evaluations via terminal cardiocentesis. Femurs were submitted for post-mortem bone mechanical strength and composition analysis.

Row | Serum Ca^2+ [2] | Compound | Energy at maximum compared with saline-treated ovariectomized controls (FIG. 6) [1] | Initial bone stiffness compared with saline-treated ovariectomized controls (FIG. 4) [1] | Maximum load compared with saline-treated ovariectomized controls (FIG. 5) [1] | Urine Ca^2+ [2] | Serum AP (serum alkaline phosphatase) [2] | Serum Pi (serum inorganic phosphate) [2] | Serum phosphorus concentration compared with controls (FIG. 1) ([2]; oral daily for 84 days, Day 84, vs saline-treated OVX controls and sham-operated controls)
1 |  | Ser-Gly-Ser-Gly-Pse-Gly-Pse-Gly-Pse-Gly-Pse-Gly-Pse-Gly (SGSG[pS]G[pS]G[pS]G[pS]G[pS]G) [(Ser-Gly)2(Pse-Gly)5, Linear peptide, Pse = O-phosphoserine] | statistically significant increase | statistically significant increase | statistically significant increase | 29.5 ± 20.0 mg/dL | 121 ± 30 U/L | 9.2 ± 1.3 mg/dL | 
2 | 10.8 ± 0.6 mg/dL | N[C@@H](CO)C(=O)NCC(=O)N[C@@H](CO)C(=O)NCC(=O)N[C@@H](CO)C(=O)NCC(=O)N[C@@H](CO)C(=O)NCC(=O)N[C@@H](CO)C(=O)NCC(=O)N[C@@H](CO)C(=O)NCC(=O)N[C@@H](CO)C(=O)NCC(=O)O [(Ser-Gly)7, Ser-Gly-Ser-Gly-Ser-Gly-Ser-Gly-Ser-Gly-Ser-Gly-Ser-Gly] (H-SGSGSGSGSGSGSG-OH) |  |  |  | 26.7 ± 22.9 mg/dL | 134 ± 53 U/L | 8.8 ± 1.0 mg/dL | 
3 |  | Ser-Gly-Ser-Gly-Ser-Gly-Ser-Gly-Ser-Gly-Pse-Gly-Pse-Gly (SGSGSGSGSG[pS]G[pS]G) [(Ser-Gly)5(Pse-Gly)2, Linear peptide, Pse = O-phosphoserine] | statistically significant increase | statistically significant increase | statistically significant increase | 26.6 ± 14.1 mg/dL | 118 ± 18 U/L | 7.9 ± 0.9 mg/dL | equivalent to or even lower than sham-operated controls
4 | 11.0 ± 0.5 mg/dL | N[C@@H](COP(=O)(O)O)C(=O)NCC(=O)N[C@@H](COP(=O)(O)O)C(=O)NCC(=O)N[C@@H](COP(=O)(O)O)C(=O)NCC(=O)N[C@@H](COP(=O)(O)O)C(=O)NCC(=O)N[C@@H](COP(=O)(O)O)C(=O)NCC(=O)N[C@@H](COP(=O)(O)O)C(=O)NCC(=O)N[C@@H](COP(=O)(O)O)C(=O)NCC(=O)O [(Pse-Gly)7, Pse-Gly-Pse-Gly-Pse-Gly-Pse-Gly-Pse-Gly-Pse-Gly-Pse-Gly] (H-[pS]G[pS]G[pS]G[pS]G[pS]G[pS]G[pS]G-OH) |  |  |  |  |  |  | 
